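Step 1: Grow cells in 96-well plates. Step 2: Expose to compound for 48 hours at 5 concentrations. Step 3: Interpolate endpoints linearly; if unreached, use highest concentration. Here, GI50 denotes the concentration required for 50% inhibition of growth. TGI marks complete inhibition of growth.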
Columns and labels:
Test in all cases: inhibition of tumour cell growth, NCI panel, 48 h
[1] = tested on: SN12C renal
[2] = tested on: SW-620 colon
[3] = tested on: OVCAR-8 ovarian
[4] = tested on: SK-MEL-28 melanoma
[5] = tested on: BT-549 breast
[6] = tested on: MALME-3M melanoma
[7] = tested on: KM12 colon
[8] = tested on: U251 CNS
[9] = tested on: COLO 205 colon
[10] = tested on: SF-539 CNS
[11] = tested on: UACC-257 melanoma
[12] = tested on: HOP-62 NSCLC
[13] = tested on: IGROV1 ovarian
[14] = tested on: PC-3 prostate
[15] = tested on: SNB-75 CNS
[16] = tested on: MDA-MB-435
[17] = tested on: HL-60(TB) leukemia
[18] = tested on: CCRF-CEM leukemia
[19] = tested on: OVCAR-4 ovarian
[20] = tested on: SR leukemia
[21] = tested on: M14 melanoma
[22] = tested on: SK-MEL-2 melanoma
[23] = tested on: A498 renal
[24] = tested on: A549 NSCLC
[25] = tested on: MCF7 breast
[26] = tested on: SF-268 CNS
[27] = tested on: ACHN renal
[28] = tested on: EKVX NSCLC
[29] = tested on: SNB-19 CNS
[30] = tested on: HS 578T breast
[31] = tested on: RPMI-8226 leukemia
[32] = tested on: UO-31 renal
[33] = tested on: MOLT-4 leukemia
[34] = tested on: DU-145 prostate
[35] = tested on: HOP-92 NSCLC
[36] = tested on: K-562 leukemia
[37] = tested on: NCI-H460 lung
[38] = tested on: RXF 393 renal
[39] = tested on: OVCAR-5 ovarian
[40] = tested on: T-47D breast
[41] = tested on: HCT-116 colon
[42] = tested on: HCC-2998 colon
[43] = tested on: UACC-62 melanoma
[44] = tested on: HCT-15 colon
[45] = tested on: NCI-H226 lung
[46] = tested on: NCI/ADR-RES ovarian
[47] = tested on: SK-MEL-5 melanoma
[48] = tested on: LOX IMVI melanoma
[49] = tested on: CAKI-1 renal
[50] = tested on: NCI-H23 lung
[51] = tested on: SF-295 CNS
[52] = tested on: MDA-MB-231 breast
[53] = tested on: TK-10 renal
[54] = tested on: HT29 colon
[55] = tested on: NCI-H522 lung
[56] = tested on: SK-OV-3 ovarian
[57] = tested on: 786-0 renal

**Q.** How did the GI50 [1] turn out when `Cc1ccc(-c2nnc(SCc3ccc(O)c4ncccc34)n2-c2ccccc2)cc1` was run?
**A.** 329 nM

**Q.** And the TGI [1]?
**A.** > 100000 nM

**Q.** And the GI50 [2]?
**A.** 192 nM

**Q.** What about the TGI [2] of the same compound?
**A.** > 100000 nM

**Q.** And the GI50 [3]?
**A.** 175 nM

**Q.** What about the TGI [3] of the same compound?
**A.** 2140 nM

**Q.** And the GI50 [4]?
**A.** 376 nM

**Q.** What about the TGI [4] of the same compound?
**A.** > 100000 nM

**Q.** And the GI50 [5]?
**A.** 201 nM

**Q.** What about the TGI [5] of the same compound?
**A.** > 21700 nM

**Q.** And the GI50 [6]?
**A.** 353 nM

**Q.** And the TGI [6]?
**A.** 6670 nM

**Q.** What about the GI50 [7] of the same compound?
**A.** 294 nM

**Q.** What about the TGI [7] of the same compound?
**A.** > 100000 nM

**Q.** What about the GI50 [8] of the same compound?
**A.** 98.9 nM

**Q.** And the TGI [8]?
**A.** 1740 nM

**Q.** What about the GI50 [9] of the same compound?
**A.** 1440 nM

**Q.** What about the TGI [9] of the same compound?
**A.** 6090 nM

**Q.** And the GI50 [10]?
**A.** 272 nM

**Q.** And the TGI [10]?
**A.** 3160 nM

**Q.** And the GI50 [11]?
**A.** 388 nM

**Q.** And the TGI [11]?
**A.** 4220 nM

**Q.** What about the GI50 [12] of the same compound?
**A.** 345 nM

**Q.** And the TGI [12]?
**A.** 2630 nM

**Q.** And the GI50 [13]?
**A.** 284 nM

**Q.** What about the TGI [13] of the same compound?
**A.** > 100000 nM

**Q.** And the GI50 [14]?
**A.** 164 nM

**Q.** What about the TGI [14] of the same compound?
**A.** > 100000 nM

**Q.** What about the GI50 [15] of the same compound?
**A.** 248 nM

**Q.** And the TGI [15]?
**A.** 2680 nM

**Q.** And the GI50 [16]?
**A.** 110 nM

**Q.** What about the TGI [16] of the same compound?
**A.** > 100000 nM

**Q.** What about the GI50 [17] of the same compound?
**A.** 161 nM

**Q.** And the TGI [17]?
**A.** > 39800 nM

**Q.** What about the GI50 [18] of the same compound?
**A.** 94.9 nM

**Q.** What about the TGI [18] of the same compound?
**A.** > 100000 nM

**Q.** What about the GI50 [19] of the same compound?
**A.** 431 nM

**Q.** And the TGI [19]?
**A.** > 100000 nM

**Q.** What about the GI50 [20] of the same compound?
**A.** 78.2 nM

**Q.** And the TGI [20]?
**A.** > 100000 nM

**Q.** What about the GI50 [21] of the same compound?
**A.** 166 nM

**Q.** And the TGI [21]?
**A.** 3240 nM

**Q.** And the GI50 [22]?
**A.** 276 nM

**Q.** What about the TGI [22] of the same compound?
**A.** 875 nM

**Q.** What about the GI50 [23] of the same compound?
**A.** 1500 nM

**Q.** What about the TGI [23] of the same compound?
**A.** 13200 nM

**Q.** What about the GI50 [24] of the same compound?
**A.** 366 nM

**Q.** What about the TGI [24] of the same compound?
**A.** > 100000 nM

**Q.** What about the GI50 [25] of the same compound?
**A.** 81.9 nM

**Q.** What about the TGI [25] of the same compound?
**A.** > 100000 nM

**Q.** And the GI50 [26]?
**A.** 90.6 nM

**Q.** And the TGI [26]?
**A.** 10900 nM

**Q.** What about the GI50 [27] of the same compound?
**A.** 144 nM

**Q.** What about the TGI [27] of the same compound?
**A.** 8020 nM

**Q.** What about the GI50 [28] of the same compound?
**A.** 395 nM

**Q.** And the TGI [28]?
**A.** > 60800 nM

**Q.** And the GI50 [29]?
**A.** 231 nM

**Q.** What about the TGI [29] of the same compound?
**A.** 31100 nM

**Q.** And the GI50 [30]?
**A.** 236 nM

**Q.** And the TGI [30]?
**A.** 2000 nM

**Q.** What about the GI50 [31] of the same compound?
**A.** 232 nM

**Q.** And the TGI [31]?
**A.** > 100000 nM

**Q.** What about the GI50 [32] of the same compound?
**A.** 155 nM

**Q.** And the TGI [32]?
**A.** 1260 nM

**Q.** What about the GI50 [33] of the same compound?
**A.** 196 nM

**Q.** And the TGI [33]?
**A.** > 100000 nM

**Q.** And the GI50 [34]?
**A.** 298 nM

**Q.** What about the TGI [34] of the same compound?
**A.** > 100000 nM

**Q.** And the GI50 [35]?
**A.** 195 nM

**Q.** And the TGI [35]?
**A.** 1250 nM

**Q.** And the GI50 [36]?
**A.** 217 nM

**Q.** And the TGI [36]?
**A.** > 100000 nM

**Q.** What about the GI50 [37] of the same compound?
**A.** 38.2 nM

**Q.** And the TGI [37]?
**A.** 1580 nM

**Q.** And the GI50 [38]?
**A.** 399 nM

**Q.** And the TGI [38]?
**A.** 24000 nM

**Q.** And the GI50 [39]?
**A.** 1130 nM

**Q.** And the TGI [39]?
**A.** > 100000 nM

**Q.** And the GI50 [40]?
**A.** 289 nM

**Q.** And the TGI [40]?
**A.** 3530 nM

**Q.** And the GI50 [41]?
**A.** 46.7 nM

**Q.** What about the TGI [41] of the same compound?
**A.** > 35300 nM

**Q.** And the GI50 [42]?
**A.** 326 nM

**Q.** And the TGI [42]?
**A.** > 100000 nM

**Q.** And the GI50 [43]?
**A.** 347 nM

**Q.** And the TGI [43]?
**A.** 2210 nM

**Q.** What about the GI50 [44] of the same compound?
**A.** 66.6 nM

**Q.** And the TGI [44]?
**A.** > 100000 nM

**Q.** What about the GI50 [45] of the same compound?
**A.** 973 nM

**Q.** And the TGI [45]?
**A.** > 100000 nM

**Q.** What about the GI50 [46] of the same compound?
**A.** 147 nM

**Q.** And the TGI [46]?
**A.** 2270 nM

**Q.** What about the GI50 [47] of the same compound?
**A.** 337 nM

**Q.** And the GI50 [48]?
**A.** 206 nM

**Q.** And the TGI [48]?
**A.** 3970 nM

**Q.** What about the GI50 [49] of the same compound?
**A.** 312 nM

**Q.** What about the TGI [49] of the same compound?
**A.** 7790 nM

**Q.** What about the GI50 [50] of the same compound?
**A.** 254 nM

**Q.** What about the TGI [50] of the same compound?
**A.** > 39800 nM

**Q.** What about the GI50 [51] of the same compound?
**A.** 265 nM

**Q.** What about the TGI [51] of the same compound?
**A.** 4270 nM

**Q.** What about the GI50 [52] of the same compound?
**A.** 439 nM

**Q.** What about the TGI [52] of the same compound?
**A.** 24900 nM

**Q.** What about the GI50 [53] of the same compound?
**A.** 249 nM

**Q.** And the TGI [53]?
**A.** 4400 nM

**Q.** And the GI50 [54]?
**A.** 3780 nM

**Q.** What about the TGI [54] of the same compound?
**A.** > 100000 nM

**Q.** What about the GI50 [55] of the same compound?
**A.** 305 nM

**Q.** What about the TGI [55] of the same compound?
**A.** 4240 nM

**Q.** What about the GI50 [56] of the same compound?
**A.** 370 nM

**Q.** And the TGI [56]?
**A.** 4050 nM

**Q.** What about the GI50 [57] of the same compound?
**A.** 509 nM

**Q.** What about the TGI [57] of the same compound?
**A.** 26700 nM

— PubChem BioAssay (NCI)
